The nature of experiment [1]: Inhibition of LsrK expressed in Escherichia coli JW5503 harboring plasmid pET-Plsrlux assessed as reduction in autoinducer2-mediated quorum sensing activation by luminescence method.
The nature of experiment [2]: Inhibition of Salmonella typhimurium LsrK expressed in Escherichia coli MET1158 in presence of DPD by kinase-glo max luminescent assay. Further details: species or system Salmonella enterica subsp. enterica serovar Typhimurium. For orientation: Kinase-Glo measures the ATP left after a reaction by luminescence.
Experiment [3] is described as follows: Inhibition of Salmonella typhimurium LsrK expressed in Escherichia coli MET1158 incubated for 30 mins followed by DPD and ATP addition and measured after 15 mins by kinase-glo max luminescent assay. Further details: species or system Salmonella enterica subsp. enterica serovar Typhimurium.
Experiment [4] in a line: Inhibition of LsrK expressed in Escherichia coli LW7 pLW11 harboring assessed as reduction in autoinducer2-mediated quorum sensing by measuring beta-galactosidase expression by luminescence method.

The IC50 is the concentration that inhibits the measured activity by half. Regarding `O=C(O)C(=O)Nc1ccc2nc(N(Cc3ccccc3)C(=O)c3cc(Br)c(Br)[nH]3)sc2c1`, the figures for the IC50 in experiment [1] and in experiment [2] were 10 µM and 18 µM, respectively.

As to `O=C(Nc1ccc(C2=N[C@@H](C(=O)O)CO2)cc1)c1cc(Br)c(Br)[nH]1`, the IC50 in experiment [1] turned out to be 17 µM; in experiment [2] it was 78 µM.

For `CC1=C(O)C(=O)C=C2C1=CC=C1[C@@]2(C)CC[C@@]2(C)[C@@H]3C[C@](C)(C(=O)O)CC[C@]3(C)CC[C@]12C` [CELASTROL], in experiment [3], the IC50 is 3 µM.

On to `Cc1[nH]c(C(=O)N(Cc2ccccc2)c2nc3ccc(NC(=O)C(=O)O)cc3s2)c(Cl)c1Cl`, for which the IC50 in experiment [1] was found to be 1 µM; in experiment [2], 29 µM.

Consider `O=C(O)c1ccccc1Nc1ccc(Cl)cc1`, for which the half-maximal inhibitory concentration (IC50) in experiment [2] came out at 141 µM.

For `O=C1C=CC(=C(c2ccc(O)cc2)c2ccc(O)cc2)C=C1` [AURIN], the IC50 in experiment [3] came out at 1 µM; in experiment [4], 14 µM.

In the case of `O=C(O)c1c(Cl)c(Cl)c(Cl)c(Cl)c1Nc1cc(Cl)c(Cl)c(Cl)c1Cl`, the IC50 in experiment [2] came to 12 µM.

On to `O=C(O)c1ccc(O)c2ncccc12`, for which the IC50 in experiment [2] worked out at 292 µM.

On to `COc1cc(C)c2c(c1C=O)Oc1c(c(C)c(O)c3c1C(O)OC3=O)OC2=O` (stereo not given) [STICTIC ACID], for which half-maximal inhibition in experiment [3] (IC50) required 3 µM.

For the molecule `O=C(O)C(=O)Nc1nc2ccc(NC(=O)c3cc(Br)c(Br)[nH]3)cc2s1`, the IC50 in experiment [1] amounted to 0.6 µM; in experiment [2], 18 µM.

With `COc1ccc(Nc2cc(C(F)(F)F)ccc2Cl)c(C(=O)O)c1`, the IC50 in experiment [2] is 67 µM.

On to `O=C(O)c1ccc(Cl)cc1Nc1ccccc1`, for which, in experiment [2], the IC50 was 30 µM.

Regarding `O=C(O)C(=O)N[C@H]1CCc2nc(NC(=O)c3cc(Br)c(Br)[nH]3)sc2C1`, the IC50 in experiment [1] came to 2 µM; in experiment [2] it was 147 µM.

For `Cc1ccc(Cl)c(Nc2ccccc2C(=O)O)c1Cl` [MECLOFENAMIC ACID], the IC50 in experiment [2] is 178 µM.

With `O=C(O)c1ccccc1Nc1cccc(Cl)c1`, the IC50 in experiment [2] is 119 µM.

In the case of `Cc1c(Cl)cccc1Nc1ccccc1C(=O)O` [TOLFENAMIC ACID], the IC50 in experiment [2] stood at 70 µM.

Take `O=C(O)C1=CC(=C(c2ccc(O)c(C(=O)O)c2)c2ccc(O)c(C(=O)O)c2)C=CC1=O` [AURINTRICARBOXYLIC ACID]: half-maximal inhibition in experiment [3] (IC50) was put at 1 µM.

As for `O=C(O)CC(=O)Nc1ccc2nc(N(Cc3ccccc3)C(=O)c3cc(Br)c(Br)[nH]3)sc2c1`, the IC50 in experiment [1] came out at 0.4 µM; in experiment [2], 15 µM.

The values are drawn from ChEMBL document CHEMBL4813914, “Tackling Antimicrobial Resistance with Small Molecules Targeting LsrK: Challenges and Opportunities” (J Med Chem, 2020).
